Test results from US6455537B1, “Methods for treating opiate intolerance” (priority 1999, dated 2002).
Entries after “also recorded” stand apart in the source; their conditions may differ.

Key:
guinea pig ileum = conditions: cited from earlier work
Rat = experiment: Ataxic gait after antagonist alone, bolus intravenous injection; format: in vivo; conditions: i.v.; only the opiate antagonist given
Description: Only the opiate antagonist was given to study the acute side effect liability. Relative to the other compounds tested, higher doses of R N-methylnalorphine were required to produce ataxia as compared with the other compounds, with the exception of R and S N-methylnalorphine. Animals showing ataxic gait walked unsteadily with a widespread placement of the feet in a staggering manner.

[1] = test system: morphine-induced constipation; experiment: Gastrointestinal transit of a charcoal meal in morphine-treated mice; format: in vivo; conditions: morphine 3 mg/kg s.c.; charcoal meal by oral gavage; transit 25 minutes after charcoal
Method: Animals were give R N-methylnalorphine, then morphine 15 minutes later, followed by charcoal suspended in MC. Transit was measured 25 minutes after charcoal. * p<0.05 compared to morphine-treatment.
Morphine produces constipation, especially during chronic use. R N-methylnalorphine can also be used to treat constipation. […] These mice had reduced intestinal transit times of the charcoal gavage after morphine. The reduced rate of GI transit time produced by morphine is thought to be the basis of morphine's constipating effects in mammals, including man.

dogs = experiment: Emesis produced by the antagonist by itself in dogs
morphine-induced emesis = experiment: Prevention of morphine-induced emesis in dogs; conditions: for Anti-emetic ED84 value: i.v. 5 minutes prior to morphine 0.7 mg/kg i.m., estimated dose that protects 84% of treated dogs
[2] = test system: analgesic effects of morphine; experiment: Antagonism of morphine analgesia, tail flick test in rats; conditions: i.v.; lowest dose significantly antagonizing morphine in the tail flick test
[3] = test system: cis-platinum-induced emesis; experiment: Cis-platinum-induced emesis in dogs; format: in vivo; conditions: 0.5 mg/kg i.v.
Description: Ondasetron is used postoperatively to reduce the incidence of emesis during recovery from surgery, and to reduce nausea and vomiting of cancer patients who may be receiving chemotherapy with agents such as cis-platinum. It is not effective in all post surgical or cancer patients.

Structure (SMILES) | Minimum Dose to Produce Ataxic Gait In Rat (Rat) | Effect on slowed gastrointestinal transit produced by morphine [1] | Minimum Effective Dose to Antagonize Morphine Analgesia [2] | Anti-emetic ED84 value (morphine-induced emesis) | other results
C=CC[N+]1(C)CC[C@]23c4c5ccc(O)c4O[C@H]2[C@@H](O)C=CC3[C@H]1C5 (stereo partly drawn) [S N-methylnalorphine] | 15 mg/kg i.v. | no effect | – | – | Agonist potency weaker than antagonist activity in vitro (guinea pig ileum): 10 fold; Agonist properties (guinea pig ileum; guinea pig ileum, not other tissues with mu receptors): very weak agonist properties; Emesis in % of animals (dogs; 0.5 mg/kg i.v., compound by itself): Emesis in 12.5% of animals at 0.5; Doses at which dogs demonstrated emesis (dogs; dog, in vivo, intravenous): > 0.5 mg/kg; Animals with emesis produced by the compound by itself (dogs; first pharmacological action): 1 out of 8; Block of morphine-induced emesis (morphine-induced emesis; doses tested up to 0.5 mg/kg i.v., morphine 0.7 mg/kg i.m., listed as S isomer of N-methylnalorphine): not active
C=CC[N+]1(C)CC[C@]23c4c5ccc(O)c4O[C@H]2C(=O)CC[C@@]3(O)[C@H]1C5 (stereo partly drawn) [N-methylnaloxone] | 15 mg/kg i.v. | – | 2.5 mg/kg i.v. | 0.18 mg/k i.v. mg/kg | –
Cc1nccn1CC1CCc2c(c3ccccc3n2C)C1=O (stereo not drawn) [ondansetron] | – | – | – | – | Protection from the emetic effects of morphine (morphine-induced emesis; 0.5 mg/kg i.v., morphine 0.7mg/kg i.m.): failed to protect any dogs; Protection from cis-platinum-induced emesis [3]: completely protects
C[N@+]1(CC2CC2)CC[C@]23c4c5ccc(O)c4O[C@H]2C(=O)CC[C@@]3(O)[C@H]1C5 [N-methylnaltrexone] | 15 mg/kg i.v. | – | 15 mg/kg i.v. | 0.25 mg/kg i.v. | –
C=CC[N@@+]1(C)CC[C@]23c4c5ccc(O)c4O[C@H]2[C@@H](O)C=C[C@H]3[C@H]1C5 [R N-methylnalorphine, (5α,6α,17R)-7,8-didehydro-4,5-epoxy-3,6-dihydroxy-17-methyl-17-(2-propenyl)morphinanium chloride] | 30 mg/kg i.v. | reversal of the slowed transit time produced by morphine; also recorded: dose-dependent increase in gastrointestinal transit | 30.0 mg/kg i.v. | 0.11 mg/kg i.v. | Anti-emetic ED84 value (morphine-induced emesis; listed as compound of Formula (I)): 0.11 mg/kg
